Assay results as given in patent US4349545A, “Novel erythromycin a derivatives” (Roussel Uclaf, priority 1980, dated 1982).
Converted amounts (≈) assume the structure as drawn. One block for each compound: values may come before it.

Assays:
[1] = test system: Streptococcus pyogenes A 561; test: serial dilution liquid medium MIC, Streptococcus pyogenes A 561; format: cell-based; conditions: A561, 24 hours at 37° C., read-out: minimum inhibiting concentration (MIC)
Protocol: (§1) The method was a serial dilution of liquid medium test wherein a series of tubes were prepared containing the same amount of sterile nutritive medium and increasing amounts of the test product was distributed in each tube. The tubes were then seeded with a bacterial strain and incubated for 24 hours in an oven at 37° C. The degree of inhibition was determined by transillumination to determine the minimum inhibiting concentration (MIC) express in μg/ml and the results are reported in the following Tables.

[2] = test system: Streptococcus faecalis 5432; test: serial dilution liquid medium MIC, Streptococcus faecalis 5432; format: cell-based; conditions: Enterococcus faecalis, 24 hours at 37° C., read-out: minimum inhibiting concentration (MIC)
Protocol: as §1

[3] = test system: Staphylococcus aureus 1061; test: serial dilution liquid medium MIC, Staphylococcus aureus 1061 pen-sensibles; format: cell-based; conditions: 24 hours at 37° C., read-out: minimum inhibiting concentration (MIC)
Protocol: as §1

[4] = test system: Streptococcus faecalis 5435; test: serial dilution liquid medium MIC, Streptococcus faecalis 5435; format: cell-based; conditions: Enterococcus faecalis, 24 hours at 37° C., read-out: minimum inhibiting concentration (MIC)
Protocol: as §1

[5] = test system: Staphylococcus aureus UC 1128; test: serial dilution liquid medium MIC, Staphylococcus aureus UC 1128 pen-resistant; format: cell-based; conditions: UC1128; Staphylococcus aureus UC 1128 pen-resistant; 24 hours at 37° C.; read-out: minimum inhibiting concentration (MIC)
Protocol: as §1

[6] = test system: Streptococcus faecalis 99 F 74; test: serial dilution liquid medium MIC, Streptococcus faecalis 99 F 74; format: cell-based; conditions: Enterococcus faecalis, 99F74, 24 hours at 37° C., read-out: minimum inhibiting concentration (MIC)
Protocol: as §1

[7] = test system: Staphylococcus aureus exp. n° 54 146; test: serial dilution liquid medium MIC, Staphylococcus aureus exp. n° 54 146; format: cell-based; conditions: Staphylococcus aureus exp. 54 146; 24 hours at 37° C.; read-out: minimum inhibiting concentration (MIC)
Protocol: as §1

[8] = test system: Staphylococcus aureus No. 54,146; test: In vivo activity in mice experimentally infected with Staphylococcus aureus No. 54,146; conditions: groups of 10 mice
Protocol: The test was effected with the compounds of the invention and erythromycin as a reference on groups of 10 mice weighing about 21 g experimentally infected with Staphylococcus aureus No. 54,146 by intraperitoneal administration of 0.5 ml of a 22 hour culture of the said organism in bouillon with a pH of 7 diluted to 1/6 with physiological water. The test compounds were orally administrated to the mice 1,5 and 24 hours after the infection and the mortality on the 8th day was determined.

[9] = dose 0,5mg oral, 1,5 and 24 hours after infection
[10] = dose 0,25mg oral, 1,5 and 24 hours after infection

Compound: CC[C@H]1OC(=O)[C@H](C)[C@@H](O[C@H]2C[C@@](C)(OC)[C@@H](O)[C@H](C)O2)[C@H](C)[C@@H](O[C@@H]2O[C@H](C)C[C@H](N(C)C)[C@H]2O)[C@](C)(O)C[C@@H](C)C(=NOCOCCN(CC)CC)[C@H](C)[C@@H](O)[C@]1(C)O [Example 23, 9-[0-{(2-diethylaminoethoxy)-methyl}-oxime] of erythromycin]
MIC [1]: 0.02 µg/mL (≈ 0.0228 µM)
MIC [2]: 0.1 µg/mL (≈ 0.114 µM)
MIC [3]: 0.4 µg/mL (≈ 0.456 µM)
MIC [4]: 0.2 µg/mL (≈ 0.228 µM)
MIC [5]: 1 µg/mL (≈ 1.14 µM)
MIC [6]: 0.1 µg/mL (≈ 0.114 µM)
MIC [7]: 0.6 µg/mL (≈ 0.683 µM)

Compound: CC[C@H]1OC(=O)[C@H](C)[C@@H](O[C@H]2C[C@@](C)(OC)[C@@H](O)[C@H](C)O2)[C@H](C)[C@@H](O[C@@H]2O[C@H](C)C[C@H](N(C)C)[C@H]2O)[C@](C)(O)C[C@@H](C)C(=NOCOCCN)[C@H](C)[C@@H](O)[C@]1(C)O [Example 24, 9-[0-{(2-aminoethoxy}-methyl)-oxime] of erythromycin]
MIC [1]: ≤ 0.01 µg/mL
MIC [2]: 0.05 µg/mL (≈ 0.0608 µM)
MIC [3]: 0.1 µg/mL (≈ 0.122 µM)
MIC [4]: 0.2 µg/mL (≈ 0.243 µM)
MIC [5]: 0.4 µg/mL (≈ 0.487 µM)
MIC [6]: 0.1 µg/mL (≈ 0.122 µM)
MIC [7]: 0.4 µg/mL (≈ 0.487 µM)

Compound: CC[C@H]1OC(=O)[C@H](C)[C@@H](O[C@H]2C[C@@](C)(OC)[C@@H](O)[C@H](C)O2)[C@H](C)[C@@H](O[C@@H]2O[C@H](C)C[C@H](N(C)C)[C@H]2O)[C@](C)(O)C[C@@H](C)C(=NOCOCCNC)[C@H](C)[C@@H](O)[C@]1(C)O [Example 25, 9-[0-{(2-methylamino-ethoxy}-methyl)-oxime] of erythromycin]
MIC [1]: ≤ 0.01 µg/mL
MIC [2]: 0.05 µg/mL (≈ 0.0598 µM)
MIC [3]: 0.5 µg/mL (≈ 0.598 µM)
MIC [4]: 0.2 µg/mL (≈ 0.239 µM)
MIC [5]: 0.5 µg/mL (≈ 0.598 µM)
MIC [6]: 0.05 µg/mL (≈ 0.0598 µM)
MIC [7]: 0.5 µg/mL (≈ 0.598 µM)

Now from value to compound, other results behind:

MIC [1]: 0.1 µg/mL (≈ 0.112 µM)
MIC [2]: 0.2 µg/mL (≈ 0.224 µM)
MIC [3]: 0.6 µg/mL (≈ 0.673 µM)
MIC [4]: 1 µg/mL (≈ 1.12 µM)
MIC [5]: 0.1 µg/mL (≈ 0.112 µM)
MIC [6]: 0.2 µg/mL (≈ 0.224 µM)
MIC [7]: 0.6 µg/mL (≈ 0.673 µM)
Compound: CC[C@H]1OC(=O)[C@H](C)[C@@H](O[C@H]2C[C@@](C)(OC)[C@@H](O)[C@H](C)O2)[C@H](C)[C@@H](O[C@@H]2O[C@H](C)C[C@H](N(C)C)[C@H]2O)[C@](C)(O)C[C@@H](C)C(=NOCOCCN2CCOCC2)[C@H](C)[C@@H](O)[C@]1(C)O [Example 26, 9-[0-{(2-(morpholin-4-yl)-ethoxy}-methyl)-oxime] of erythromycin]

MIC [1]: 0.05 µg/mL (≈ 0.0574 µM)
MIC [2]: 0.2 µg/mL (≈ 0.23 µM)
MIC [3]: 0.4 µg/mL (≈ 0.459 µM)
MIC [4]: 0.4 µg/mL (≈ 0.459 µM)
MIC [5]: 0.6 µg/mL (≈ 0.689 µM)
MIC [6]: 0.2 µg/mL (≈ 0.23 µM)
MIC [7]: 0.6 µg/mL (≈ 0.689 µM)
Compound: CC[C@H]1OC(=O)[C@H](C)[C@@H](O[C@H]2C[C@@](C)(OC)[C@@H](O)[C@H](C)O2)[C@H](C)[C@@H](O[C@@H]2O[C@H](C)C[C@H](N(C)C)[C@H]2O)[C@](C)(O)C[C@@H](C)C(=NOCSc2ccccc2)[C@H](C)[C@@H](O)[C@]1(C)O [Example 28, 9-[0-(phenylthiomethyl)-oxime] of erythromycin]

MIC [1]: 0.02 µg/mL (≈ 0.0236 µM)
MIC [2]: 0.1 µg/mL (≈ 0.118 µM)
MIC [3]: 0.5 µg/mL (≈ 0.59 µM)
MIC [5]: 1 µg/mL (≈ 1.18 µM)
MIC [6]: 0.1 µg/mL (≈ 0.118 µM)
MIC [7]: 1 µg/mL (≈ 1.18 µM)
Compound: CC[C@H]1OC(=O)[C@H](C)[C@@H](O[C@H]2C[C@@](C)(OC)[C@@H](O)[C@H](C)O2)[C@H](C)[C@@H](O[C@@H]2O[C@H](C)C[C@H](N(C)C)[C@H]2O)[C@](C)(O)C[C@@H](C)C(=NOCCN(CC)CC)[C@H](C)[C@@H](O)[C@]1(C)O [Example 31, 9-[0-(2-diethylaminoethyl)-oxime] of erythromycin]
No. of mice living on the 8th day [8, 9]: 10 mice
No. of mice living on the 8th day [8, 10]: 4 mice

MIC [1]: ≤ 0.01 µg/mL
MIC [2]: 0.05 µg/mL (≈ 0.0591 µM)
MIC [3]: 0.4 µg/mL (≈ 0.473 µM)
MIC [4]: 0.2 µg/mL (≈ 0.236 µM)
MIC [5]: 1 µg/mL (≈ 1.18 µM)
MIC [6]: 0.1 µg/mL (≈ 0.118 µM)
MIC [7]: 0.6 µg/mL (≈ 0.709 µM)
Compound: CC[C@H]1OC(=O)[C@H](C)[C@@H](O[C@H]2C[C@@](C)(OC)[C@@H](O)[C@H](C)O2)[C@H](C)[C@@H](O[C@@H]2O[C@H](C)C[C@H](N(C)C)[C@H]2O)[C@](C)(O)C[C@@H](C)C(=NOCCN2CCCC2)[C@H](C)[C@@H](O)[C@]1(C)O [Example 32, 9-[0-(2-{pyrrolidin-1-yl}-ethyl)-oxime] of erythromycin]

MIC [1]: 0.05 µg/mL (≈ 0.0571 µM)
MIC [2]: 0.2 µg/mL (≈ 0.228 µM)
MIC [3]: 0.5 µg/mL (≈ 0.571 µM)
MIC [5]: 1 µg/mL (≈ 1.14 µM)
MIC [6]: 0.2 µg/mL (≈ 0.228 µM)
MIC [7]: 1 µg/mL (≈ 1.14 µM)
Compound: CC[C@H]1OC(=O)[C@H](C)[C@@H](O[C@H]2C[C@@](C)(OC)[C@@H](O)[C@H](C)O2)[C@H](C)[C@@H](O[C@@H]2O[C@H](C)C[C@H](N(C)C)[C@H]2O)[C@](C)(O)C[C@@H](C)C(=NOCCN(C(C)C)C(C)C)[C@H](C)[C@@H](O)[C@]1(C)O [Example 41, 9-[O-(2-disopropylamino-ethyl)-oxime] of erythromycin]
No. of mice living on the 8th day [8, 9]: 10 mice
No. of mice living on the 8th day [8, 10]: 9 mice
